Assay results: ChEMBL document CHEMBL5104138, “Discovery of pyridyl urea sulfonamide inhibitors of NaV1.7” (Bioorg Med Chem Lett, 2022)
In brackets after ≈: the same amount, converted by molar mass. One block for each compound: values may come before it.

How the values were obtained:
[1] = Lipophilicity, logD of compound at pH 7.4; assay type: physicochemical; conditions: buffer
Cytochrome P450 3A4 [2] = target: T1, Cytochrome P450 3A4 (Homo sapiens, UniProt P08684); experiment: Time dependent inhibition of CYP3A4 in human liver microsomes using midazolam as substrate incubated for 30 mins; assay type: ADME, Microsome
Cytochrome P450 3A4 [3] = target: T1, Cytochrome P450 3A4; experiment: Time dependent inhibition of CYP3A4 in human liver microsomes using midazolam as substrate preincubated for 30 mins followed by substrate addition; assay type: ADME, Microsome
[4] = target: Sodium channel protein type 9 subunit alpha (Homo sapiens, UniProt Q15858); experiment: Inhibition of human Nav1.7 by PatchXpress assay
[5] = Clearance in rat at 0.5 mg/kg, iv; conditions: in vivo
[6] = rat, in vivo, iv, 0.5 mg/kg
Description: Unbound clearance in rat at 0.5 mg/kg, iv

[7] = half life in dog at 2 mg/kg, po; assay type: ADME, organism-based, Canis lupus familiaris; conditions: in vivo
[8] = Oral bioavailability in dog at 2 mg/kg; assay type: ADME, organism-based, Canis lupus familiaris; conditions: in vivo
[9] = AUC in dog at 2 mg/kg, po; assay type: ADME, organism-based, Canis lupus familiaris; parameters: dose 2 mg/kg, route po; conditions: in vivo
[10] = Unbound clearance in dog at 0.25 mg/kg, iv; assay type: ADME, organism-based, Canis lupus familiaris; conditions: in vivo
[11] = Clearance in dog at 0.25 mg/kg, iv; assay type: ADME, organism-based, Canis lupus familiaris; conditions: in vivo
[12] = Half life in rat at 10 mg/kg, po; assay type: ADME, organism-based; conditions: in vivo
[13] = Oral bioavailability in rat at 10 mg/kg; assay type: ADME, organism-based; conditions: in vivo
[14] = AUC in rat at 10 mg/kg, po; assay type: ADME, organism-based; parameters: dose 10 mg/kg, route po; conditions: in vivo
[15] = Half life in mouse at 100 mg/kg, po; assay type: ADME, organism-based; conditions: in vivo
[16] = Oral bioavailability in mouse at 100 mg/kg; assay type: ADME, organism-based; conditions: in vivo
[17] = AUC in mouse at 100 mg/kg, po; assay type: ADME, organism-based; parameters: dose 100 mg/kg, route po; conditions: in vivo
[18] = Clearance in mouse; assay type: ADME, organism-based; conditions: in vivo
[19] = Unbound clearance in mouse; assay type: ADME, organism-based; conditions: in vivo
[20] = Solubility of the compound at pH 7.4; assay type: physicochemical; conditions: buffer
PXR (NR1I2) = target: T2, PXR (NR1I2) (Homo sapiens, UniProt O75469); experiment: Activation of human PXR at 10 uM relative to control; assay type: toxicity; conditions: read-out: Activity
T2 sequence (O75469 whole entry): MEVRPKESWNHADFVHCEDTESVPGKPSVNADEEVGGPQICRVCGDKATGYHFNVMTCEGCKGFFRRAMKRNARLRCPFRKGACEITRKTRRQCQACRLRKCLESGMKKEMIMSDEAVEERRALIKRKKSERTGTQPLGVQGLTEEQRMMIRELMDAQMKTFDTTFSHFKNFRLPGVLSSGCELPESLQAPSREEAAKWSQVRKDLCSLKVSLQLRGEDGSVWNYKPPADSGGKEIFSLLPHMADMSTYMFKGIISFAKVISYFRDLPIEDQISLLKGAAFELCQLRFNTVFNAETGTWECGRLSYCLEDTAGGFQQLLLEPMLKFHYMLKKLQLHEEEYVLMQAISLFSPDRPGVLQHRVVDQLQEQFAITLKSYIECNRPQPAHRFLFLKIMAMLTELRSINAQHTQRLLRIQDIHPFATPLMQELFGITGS

[21] = Permeability in MDCK cells; assay type: ADME, cell-based, Canis lupus familiaris; conditions: dog, read-out: permeability
Cytochrome P450 2C9 = Cytochrome P450 2C9 (Homo sapiens, UniProt P11712); experiment: Inhibition of CYP2C9 (unknown origin); assay type: ADME
[22] = target: Sodium channel protein type 5 subunit alpha (Homo sapiens, UniProt Q14524); experiment: Inhibition of human Nav1.5 at -50 mV holding potential by PatchXpress assay
Mus musculus [23] = experiment: Antinociceptive activity in mouse model of Histamine-induced itching assessed as reduction in scratching bouts at 3 mg/kg, po relative to control; assay type: functional; parameters: scale not given: the % may be the effect or the level left
Mus musculus [24] = experiment: Antinociceptive activity in mouse model of Histamine-induced itching assessed as reduction in scratching bouts at 10 mg/kg, po relative to control; assay type: functional; parameters: scale not given: the % may be the effect or the level left
Mus musculus [25] = experiment: Antinociceptive activity in mouse model of Histamine-induced itching assessed as reduction in scratching bouts at 30 mg/kg, po relative to control; assay type: functional; parameters: scale not given: the % may be the effect or the level left
Mus musculus [26] = experiment: Antinociceptive activity in capsaicin-induced licking mouse model assessed as reduction in time spent on licking at 10 mg/kg, po relative to control; assay type: functional; parameters: scale not given: the % may be the effect or the level left
Mus musculus [27] = experiment: Antinociceptive activity in UV burn-induced thermal hyperalgesia mouse model assessed as reduction in latency time at 30 mg/kg, po relative to control; assay type: functional; parameters: scale not given: the % may be the effect or the level left
Cytochrome P450 2D6 [28] = target: T3, Cytochrome P450 2D6 (Homo sapiens, UniProt P10635); experiment: Time dependent inhibition of CYP2D6 (unknown origin) incubated for 30 mins; assay type: ADME
Cytochrome P450 2D6 [29] = target: T3, Cytochrome P450 2D6; experiment: Time dependent inhibition of CYP2D6 (unknown origin) preincubated for 30 mins followed by substrate addition; assay type: ADME

Sequence of Sodium channel protein type 9 subunit alpha (Q15858 whole entry): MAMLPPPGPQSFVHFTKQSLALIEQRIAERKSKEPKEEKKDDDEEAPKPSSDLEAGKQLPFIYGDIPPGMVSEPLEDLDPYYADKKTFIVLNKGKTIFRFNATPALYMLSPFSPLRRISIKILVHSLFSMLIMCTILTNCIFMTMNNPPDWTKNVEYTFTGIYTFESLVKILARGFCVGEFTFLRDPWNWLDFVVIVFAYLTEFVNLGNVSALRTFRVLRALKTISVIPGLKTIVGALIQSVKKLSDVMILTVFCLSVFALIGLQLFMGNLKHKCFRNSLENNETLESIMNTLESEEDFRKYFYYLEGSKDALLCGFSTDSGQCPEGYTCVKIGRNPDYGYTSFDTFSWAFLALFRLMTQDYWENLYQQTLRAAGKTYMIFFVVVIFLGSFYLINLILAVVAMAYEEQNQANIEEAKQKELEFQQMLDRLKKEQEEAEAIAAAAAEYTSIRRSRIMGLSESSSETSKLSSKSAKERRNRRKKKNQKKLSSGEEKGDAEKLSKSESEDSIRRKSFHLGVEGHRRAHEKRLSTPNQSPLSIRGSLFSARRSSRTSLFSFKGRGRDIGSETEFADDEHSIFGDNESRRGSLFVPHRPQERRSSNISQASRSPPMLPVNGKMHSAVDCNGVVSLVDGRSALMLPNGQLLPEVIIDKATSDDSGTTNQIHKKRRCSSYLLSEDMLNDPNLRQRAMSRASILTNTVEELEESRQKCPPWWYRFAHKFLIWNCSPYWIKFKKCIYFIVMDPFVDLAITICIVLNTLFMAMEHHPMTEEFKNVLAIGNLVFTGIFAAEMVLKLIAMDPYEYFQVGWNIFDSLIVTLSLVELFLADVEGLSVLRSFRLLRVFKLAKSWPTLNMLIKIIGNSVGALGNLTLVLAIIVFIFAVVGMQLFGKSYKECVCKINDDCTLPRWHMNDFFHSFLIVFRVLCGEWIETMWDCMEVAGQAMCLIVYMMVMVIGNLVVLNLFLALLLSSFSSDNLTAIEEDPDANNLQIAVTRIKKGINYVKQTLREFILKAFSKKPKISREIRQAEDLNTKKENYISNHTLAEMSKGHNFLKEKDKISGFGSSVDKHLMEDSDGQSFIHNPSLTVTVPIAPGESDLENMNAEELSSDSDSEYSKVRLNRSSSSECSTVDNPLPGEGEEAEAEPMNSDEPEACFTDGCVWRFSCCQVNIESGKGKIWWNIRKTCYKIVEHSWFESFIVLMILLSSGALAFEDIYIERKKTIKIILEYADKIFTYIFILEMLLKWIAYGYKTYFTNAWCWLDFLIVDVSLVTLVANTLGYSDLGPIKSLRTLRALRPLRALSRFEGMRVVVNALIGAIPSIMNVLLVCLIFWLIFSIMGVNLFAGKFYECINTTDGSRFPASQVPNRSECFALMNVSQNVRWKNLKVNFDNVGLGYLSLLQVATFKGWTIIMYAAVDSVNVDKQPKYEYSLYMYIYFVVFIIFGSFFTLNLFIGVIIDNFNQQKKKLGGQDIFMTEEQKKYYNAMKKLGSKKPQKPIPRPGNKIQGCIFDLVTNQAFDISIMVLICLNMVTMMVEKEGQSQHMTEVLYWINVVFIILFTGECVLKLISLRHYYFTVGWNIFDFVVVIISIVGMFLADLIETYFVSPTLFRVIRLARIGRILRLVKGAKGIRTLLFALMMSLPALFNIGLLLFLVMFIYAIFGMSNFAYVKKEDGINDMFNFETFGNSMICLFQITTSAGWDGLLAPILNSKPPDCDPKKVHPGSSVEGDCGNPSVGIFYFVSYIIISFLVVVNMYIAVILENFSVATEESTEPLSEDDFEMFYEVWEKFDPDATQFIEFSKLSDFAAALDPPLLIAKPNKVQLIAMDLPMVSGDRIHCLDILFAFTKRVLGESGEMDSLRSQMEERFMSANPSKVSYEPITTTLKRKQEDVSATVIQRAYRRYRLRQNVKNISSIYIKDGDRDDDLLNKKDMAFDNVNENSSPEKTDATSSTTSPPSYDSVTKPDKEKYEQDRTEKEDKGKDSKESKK
T1 sequence (P08684 whole entry): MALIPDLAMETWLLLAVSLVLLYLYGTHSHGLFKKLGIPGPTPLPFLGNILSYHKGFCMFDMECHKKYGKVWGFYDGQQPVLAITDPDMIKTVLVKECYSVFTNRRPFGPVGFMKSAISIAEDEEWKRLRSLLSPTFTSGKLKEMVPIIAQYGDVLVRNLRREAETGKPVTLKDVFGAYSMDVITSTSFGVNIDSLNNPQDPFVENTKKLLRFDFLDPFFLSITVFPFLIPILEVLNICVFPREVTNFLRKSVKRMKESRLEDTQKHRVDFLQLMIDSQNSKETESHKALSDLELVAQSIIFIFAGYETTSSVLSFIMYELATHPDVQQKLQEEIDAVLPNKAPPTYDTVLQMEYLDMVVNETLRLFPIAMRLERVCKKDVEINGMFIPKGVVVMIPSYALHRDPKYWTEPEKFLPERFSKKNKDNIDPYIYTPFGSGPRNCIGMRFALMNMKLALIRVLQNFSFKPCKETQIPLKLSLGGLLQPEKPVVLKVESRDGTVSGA
T3 sequence (P10635 whole entry): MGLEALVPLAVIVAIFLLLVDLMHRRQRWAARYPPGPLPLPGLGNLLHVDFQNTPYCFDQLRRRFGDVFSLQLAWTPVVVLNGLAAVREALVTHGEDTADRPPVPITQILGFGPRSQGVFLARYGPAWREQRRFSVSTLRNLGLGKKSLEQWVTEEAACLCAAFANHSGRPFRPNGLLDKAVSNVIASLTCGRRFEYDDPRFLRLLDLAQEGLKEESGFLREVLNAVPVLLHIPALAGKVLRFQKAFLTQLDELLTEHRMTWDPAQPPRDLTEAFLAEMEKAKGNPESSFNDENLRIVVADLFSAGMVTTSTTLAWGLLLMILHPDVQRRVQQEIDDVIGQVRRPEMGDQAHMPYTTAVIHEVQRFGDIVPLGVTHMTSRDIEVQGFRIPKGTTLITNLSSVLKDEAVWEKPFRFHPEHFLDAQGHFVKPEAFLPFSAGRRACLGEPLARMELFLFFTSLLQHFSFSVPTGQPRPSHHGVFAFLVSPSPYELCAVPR
Sequence of Cytochrome P450 2C9 (P11712 whole entry): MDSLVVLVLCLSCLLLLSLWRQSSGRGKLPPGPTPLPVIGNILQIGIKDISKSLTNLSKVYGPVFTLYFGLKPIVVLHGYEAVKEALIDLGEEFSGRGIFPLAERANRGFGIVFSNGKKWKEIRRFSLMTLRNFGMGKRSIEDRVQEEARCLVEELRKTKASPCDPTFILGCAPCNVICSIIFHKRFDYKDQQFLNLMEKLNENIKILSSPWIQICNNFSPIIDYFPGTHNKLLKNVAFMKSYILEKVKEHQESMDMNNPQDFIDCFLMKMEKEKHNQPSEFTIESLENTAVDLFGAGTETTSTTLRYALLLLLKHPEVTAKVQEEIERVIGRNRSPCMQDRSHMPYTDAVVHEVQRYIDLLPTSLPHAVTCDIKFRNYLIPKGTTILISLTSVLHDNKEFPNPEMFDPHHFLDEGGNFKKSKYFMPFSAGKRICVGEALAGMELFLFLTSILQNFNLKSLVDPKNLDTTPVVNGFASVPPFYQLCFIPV

logD [1]: 1 | IC50 (Cytochrome P450 3A4 [2]): > 50 µM | IC50 (Cytochrome P450 3A4 [3]): 9 µM | IC50 [4]: 0.13 µM | clearance [5]: 0.5 mL/min/kg | CL free [6]: 267 mL/min/kg
SMILES: CNC(=O)N(c1ccc(S(=O)(=O)Nc2ncccn2)cn1)c1cc(F)c(-c2cccc(C(F)(F)F)c2)cc1OC

logD [1]: 0.9 | IC50 (Cytochrome P450 3A4 [2]): > 50 µM | IC50 (Cytochrome P450 3A4 [3]): > 50 µM | IC50 [4]: 0.023 µM | clearance [5]: 91.7 mL/min/kg
SMILES: CNC(=O)N(c1ccc(S(=O)(=O)Nc2ccon2)cn1)c1cc(Cl)c(-c2ccc(F)c(OCC(F)(F)F)c2)cc1OC

half-life [7]: 18 h | bioavailability [8]: 104% | AUC [9]: 200 µM·h | CL free [10]: 60 mL/min/kg | clearance [11]: 0.25 mL/min/kg | half-life [12]: 4.6 h | bioavailability [13]: 95% | AUC [14]: 212 µM·h | half-life [15]: 3.4 h | bioavailability [16]: 80% | AUC [17]: 1150 µM·h | clearance [18]: 1.67 mL/min/kg | CL free [19]: 183 mL/min/kg | solubility [20]: 260 µM (≈ 159 µg/mL) | Papp [21]: 18 ×10⁻⁶ cm/s | IC50 (Cytochrome P450 2C9): 3.3 µM | logD [1]: 1.4 | IC50 (Cytochrome P450 3A4 [2]): > 50 µM | IC50 (Cytochrome P450 3A4 [3]): > 50 µM | clearance [5]: 1.17 mL/min/kg | CL free [6]: 733 mL/min/kg
SMILES: CNC(=O)N(c1ccc(S(=O)(=O)Nc2ncccn2)cn1)c1cc(F)c(-c2ccc(F)c(OC(F)(F)F)c2)cc1OC
activity at 10 µM (PXR (NR1I2)): 3% | IC50 [22]: 40 µM | Activity (Mus musculus [23]): 55% | Activity (Mus musculus [24]): 83% | Activity (Mus musculus [25]): 95% | Activity (Mus musculus [26]): 63% | Activity (Mus musculus [27]): 89%

logD [1]: 0.7 | IC50 (Cytochrome P450 3A4 [2]): > 50 µM | IC50 (Cytochrome P450 3A4 [3]): > 50 µM | clearance [5]: 33.3 mL/min/kg | CL free [6]: 4770 mL/min/kg
SMILES: CNC(=O)N(c1ccc(S(=O)(=O)Nc2ccon2)cn1)c1cc(Cl)c(-c2cc(F)c(F)c(F)c2)cc1OC

SMILES: CN(C)CCOC(c1ccccc1)c1ccccc1 [DIPHENHYDRAMINE]
Activity (Mus musculus [25]): 73%

IC50 (Cytochrome P450 3A4 [2]): 35 µM | IC50 (Cytochrome P450 3A4 [3]): > 50 µM
SMILES: CNC(=O)N(c1ccc(S(=O)(=O)Nc2ccon2)cn1)c1cc(Cl)c(-c2cccc(OCC(F)(F)F)c2)cc1OC

IC50 (Cytochrome P450 2D6 [28]): 30 µM | IC50 (Cytochrome P450 2D6 [29]): 19 µM | logD [1]: 1.8 | IC50 (Cytochrome P450 3A4 [2]): > 50 µM | IC50 (Cytochrome P450 3A4 [3]): > 50 µM | clearance [5]: 11.7 mL/min/kg | CL free [6]: 1150 mL/min/kg
SMILES: CNC(=O)N(c1ccc(S(=O)(=O)Nc2cccnn2)cn1)c1cc(F)c(-c2ccc(F)c(OC(F)(F)F)c2)cc1OC

IC50 (Cytochrome P450 3A4 [2]): > 50 µM | IC50 (Cytochrome P450 3A4 [3]): > 50 µM
SMILES: CNC(=O)N(c1ccc(S(=O)(=O)Nc2ccon2)cn1)c1cc(Cl)c(-c2cc(OC)nc(C(F)(F)F)c2)cc1OC

IC50 [4]: 2.91 µM
SMILES: COc1cc(-c2ccc(Cl)c(C)c2)ccc1N(C(C)=O)c1ccc(S(=O)(=O)Nc2ccon2)cn1

logD [1]: 1.2 | IC50 (Cytochrome P450 3A4 [2]): > 50 µM | IC50 (Cytochrome P450 3A4 [3]): > 50 µM | clearance [5]: 2.5 mL/min/kg | CL free [6]: 817 mL/min/kg
SMILES: CNC(=O)N(c1ccc(S(=O)(=O)Nc2ncccn2)cn1)c1cc(F)c(-c2ccc(F)c(C(F)(F)F)c2)cc1OC

IC50 (Cytochrome P450 3A4 [2]): 12 µM | IC50 (Cytochrome P450 3A4 [3]): > 50 µM
SMILES: CNC(=O)N(c1ccc(S(=O)(=O)Nc2ccon2)cn1)c1cc(Cl)c(-c2ccc(F)c(C(F)(F)F)c2)cc1OC

IC50 [4]: > 5 µM
SMILES: COc1cc(-c2ccc(Cl)c(C)c2)ccc1N(C(=O)N(C)C)c1ccc(S(=O)(=O)Nc2ccon2)cn1
